Data set [1] in a line: Storage at 40° C./75% RH (elevated humidity) for 1 week, re-analysis by XRPD/HPLC. To be noted: for Storage 40° C./75% RH: salt screen solids, 1 week, XRPD pattern or observation.
Experimental: The crystalline solids were filtered, dried at ambient conditions, and stored at 40° C./75% RH for 1 week and analyzed by ^1H NMR/IC.
Samples from the screen using amorphous free base Compound 1 were analysed by ^1H-NMR and DSC, and re-analysis by XRPD was also carried out after drying at 50° C./vacuum and storage at 40° C./75% RH (the same sample was dried and stored at elevated humidity).
Data set [2] in a line: Polymorphism study: maturation (temperature cycling RT to 50° C.) in solvents, XRPD. Type of data set: physicochemical. Here is the method: One of 21 solvents was added to each vial in a number of aliquots (up to 30 volumes), with shaking. All the samples were then placed under maturation between RT to 50° C. (4 hours at each temperature) for 3 days. After maturation the samples were analysed by XRPD. Clear solutions were cooled to −20° C. (freezer). If no precipitation occurred samples were evaporated at RT.
Samples were placed under maturation between RT-50° C. (4 hours cycle) for 3 days. After maturation the samples were analyzed by XRPD. Clear solutions were then cooled to −20° C. (freezer). If no precipitation occurred, samples were evaporated at RT.
The corresponding solvents and solvent mixtures were added in portions of (a total of) 5, 10, 20, and 30 volumes at 50° C., with shaking, aiming for clear solutions. After each addition, the vials were allowed to shake for 20 minutes, after which observations were made. Solutions were allowed to evaporate, whereas slurries were set for 8 hour temperature cycling maturation, between RT and 50° C., for 5 days.
The oils obtained by solvent evaporation were used for the maturation screen. Anhydrous solvents (5 volumes; 100 μL) were used in order to minimise the amount of water present. Any solutions were allowed to slowly evaporate, whereas slurries were set for 8 hour temperature cycling maturation, between RT and 50° C. […] These were matured for a further 24 hours before performing XRPD analysis.
The selected solvents and solvent mixtures (5 to 20 volumes) were added with stirring. Any solutions were allowed to slowly evaporate, whereas slurries were set for 8 hour temperature cycling maturation, between RT and 50° C., for 2 days.
Crystals were ground in order to analyse them by XRPD. Suspensions were set for temperature cycling for a total of five days after which time XRPD analysis was carried out.

The nature of data set [3]: Gravimetric vapour sorption (GVS). The following applies: for GVS: moisture on loading: loaded at 40% RH, 25° C.; for GVS: XRPD after the experiment: re-analysis by XRPD after GVS. Type of data set: physicochemical. How it is done: Sorption isotherms were obtained using a Hiden IGASorp moisture sorption analyser, controlled by CFRSorp software. The sample temperature was maintained at 25° C. by a Huber re-circulating water bath. The humidity was controlled by mixing streams of dry and wet nitrogen, with a total flow rate of 250 ml/min. The relative humidity (RH) was measured by a calibrated Vaisala RH probe (dynamic range of 0-95% RH), located near the sample. The weight change, (mass relaxation) of the sample as a function of % RH was constantly monitored by the microbalance (accuracy ±0.001 mg). Typically 10-20 mg of sample was placed in a tared mesh stainless steel basket under ambient conditions. The sample was loaded and unloaded at 40% RH and 25° C. (typical room conditions). A moisture sorption isotherm was performed as outlined below (2 scans giving 1 complete cycle). The standard isotherm was performed at 25° C. at 10% RH intervals over a 0-90% RH range.
The software uses a least squares minimisation procedure together with a model of the mass relaxation, to predict an asymptotic value. The measured mass relaxation value must be within 5% of that predicted by the software, before the next % RH value is selected. The minimum equilibration time was set to 1 hour and the maximum to 4 hours. The sample was recovered after completion of the isotherm and re-analysed by XRPD.

Data set [4] in a line: Solubility assessment using FB Hydrate Form 2. Type of data set: physicochemical. The following applies: for Solubility: (RT). How it is done: The best solvent systems (clear solutions) were methanol:anisole 1:1 and DMSO (10 volumes, at RT), dioxane (10 volumes, 50° C.), chloroform (20 volumes, RT). […]
Data set [5] in a line: Solubility of free base hydrate and salts versus pH (Table 24). Type of data set: physicochemical.

For `COc1cc(-c2cccc3cc([C@H](C)Nc4nc(N)ncc4C#N)n(-c4ccccc4)c(=O)c23)ccn1` [listing 1 of 2 here], the “Storage 40° C./75% RH” value in data set [1] (listed as 1-2-Ethane disulfonic acid) is recorded as “acid salt Pattern 1”.
On to `COc1cc(-c2cccc3cc([C@H](C)Nc4nc(N)ncc4C#N)n(-c4ccccc4)c(=O)c23)ccn1` [listing 2 of 2 here], for which the “Storage 40° C./75% RH” value in data set [1] (listed as 2-Hydroxyethane sulfonic acid) is “Deliquesced”.
In the case of `COc1cc(-c2cccc3cc([C@H](C)Nc4nc(N)ncc4C#N)n(-c4ccccc4)c(=O)c23)ccn1.O=S(=O)(O)O.O=S(=O)(O)O` [Amorphous Bis-Sulfuric Acid Salt], the XRPD result in data set [2] (amorphous oil in anhydrous BuOAc 100 μL, maturation 48 h, RT-50° C. cycling) is given as “Amorphous”; in data set [2] (amorphous oil in anhydrous DCM 100 μL, maturation 48 h, RT-50° C. cycling), “Amorphous”; in data set [2] (amorphous oil in anhydrous DIPE 100 μL, maturation 48 h, RT-50° C. cycling), “Amorphous”; in data set [2] (amorphous oil in anhydrous Dioxane 100 μL, maturation 48 h, RT-50° C. cycling), “Amorphous glass”; in data set [2] (amorphous oil in anhydrous EtOAc 100 μL, maturation 48 h, RT-50° C. cycling), “Amorphous”; in data set [2] (amorphous oil in anhydrous IPA 100 μL, maturation 48 h, RT-50° C. cycling), “Amorphous glass”. The XRPD result is recorded as “Oil” in data set [2] (amorphous oil in anhydrous Methanol 100 μL, solution set for evaporation); “Amorphous” in data set [2] (amorphous oil in anhydrous TBME 100 μL, maturation 48 h, RT-50° C. cycling); “Amorphous” in data set [2] (amorphous oil in anhydrous THF 100 μL, maturation 48 h, RT-50° C. cycling); “Amorphous” in data set [2] (amorphous oil in anhydrous Toluene 100 μL, maturation 48 h, RT-50° C. cycling).
For `CC(=O)O.COc1cc(-c2cccc3cc([C@H](C)Nc4nc(N)ncc4C#N)n(-c4ccccc4)c(=O)c23)ccn1.COc1cc(-c2cccc3cc([C@H](C)Nc4nc(N)ncc4C#N)n(-c4ccccc4)c(=O)c23)ccn1` [Batch 1 of Form 6], the “GVS: second cycle reversible moisture uptake” value in data set [3] (between 0-90% RH) was “cycle shows 4.9%”. In data set [3], the “GVS: moisture on loading” value came to 6.3% w/w moisture on and the “GVS: XRPD after the experiment” value was “anhydrous Form 4”.
`COc1cc(-c2cccc3cc([C@H](C)Nc4nc(N)ncc4C#N)n(-c4ccccc4)c(=O)c23)ccn1.O` [FB Hydrate Form 2]: the XRPD result is “Crystalline Form 5” in data set [2] (FB Hydrate Form 2 in 1-butanol, Maturation); “Crystalline Form 5” in data set [2] (FB Hydrate Form 2 in 2-MeTHF, Evaporation yielded oil, maturation of oil); “Crystalline Form 5” in data set [2] (FB Hydrate Form 2 in Acetone, Maturation); “Crystalline Form 5 + Form 1” in data set [2] (FB Hydrate Form 2 in DCM:MeOH 1:1, Crystallization in fridge); “Crystalline Form 5” in data set [2] (FB Hydrate Form 2 in DCM, Crystallization in fridge); “Amorphous” in data set [2] (FB Hydrate Form 2 in DMSO, No crystallization in fridge, set for evaporation). Also, the XRPD entry is “Crystalline Form 5 + Form 3” in data set [2] (FB Hydrate Form 2 in Dioxane, Evaporation yielded oil, maturation of oil); “Crystalline Form 5” in data set [2] (FB Hydrate Form 2 in EtOAc, Maturation); “Crystalline Form 5” in data set [2] (FB Hydrate Form 2 in EtOH/5% water, Maturation); “Crystalline Form 2” in data set [2] (FB Hydrate Form 2 in EtOH/water 1:1, Maturation); “Crystalline Form 5” in data set [2] (FB Hydrate Form 2 in EtOH, Maturation); “Crystalline Form 5” in data set [2] (FB Hydrate Form 2 in IPA, Maturation). The XRPD entry is listed as “Crystalline Form 5” in data set [2] (FB Hydrate Form 2 in IPAc, Maturation); “Crystalline Form 5” in data set [2] (FB Hydrate Form 2 in MIBK, Maturation); “Crystalline Form 5” in data set [2] (FB Hydrate Form 2 in MeCN/5% water, Crystallization in fridge); “Crystalline Form 5” in data set [2] (FB Hydrate Form 2 in MeOH/anisole, Crystallization in fridge); “Crystalline Form 5” in data set [2] (FB Hydrate Form 2 in THF, Crystallization in fridge); “Crystalline Form 5” in data set [2] (FB Hydrate Form 2 in acetonitrile, Maturation). In addition, the XRPD result in data set [2] (FB Hydrate Form 2 in chloroform, Cooling in fridge yielded oil, maturation of oil) is given as “Crystalline Form 5”. For the same compound, the “Solubility at 50° C.” value in data set [4] (2-MeTHF, 50 vols) is on record as “✓”; in data set [4] (DCM, 75 vols), “✓”; in data set [4] (DCM:MeOH 1:1, 75 vols), “✓”; in data set [4] (Dioxane, 10 vols) it was “✓”; in data set [4] (MeCN/5% water, 75 vols), “✓”; in data set [4] (THF, 50 vols) it was “Almost”. Moreover, in data set [4] (THF, 75 vols), the “Solubility at 50° C.” value is given as “✓”. Further, the Solubility result in data set [4] (DMSO, 10 vols) is “✓”; in data set [4] (MeOH/anisole, 10 vols), “✓”; in data set [4] (chloroform, 20 vols) it was “✓”.
As to `COc1cc(-c2cccc3cc([C@H](C)Nc4nc(N)ncc4C#N)n(-c4ccccc4)c(=O)c23)ccn1` [Form 4 of Free Base Compound 1], the “GVS: moisture uptaken” value in data set [3] (between 70-90% RH, with hysteresis on desorption) is given as 4.8 % w/w. Also, in data set [3], the “GVS: moisture on loading” value turned out to be 0.3 % w/w and the “GVS: XRPD after the experiment” value is reported as “No changes by XRPD after the experiment”.
Turning to `COc1cc(-c2cccc3cc([C@H](C)Nc4nc(N)ncc4C#N)n(-c4ccccc4)c(=O)c23)ccn1` [Form 6 of the free base of Compound 1], in data set [3] (text statements, listed as Form 6), the “GVS behaviour (hydration / desolvation)” value was “Desolvation to the anhydrous Form 4”. The “solid form after storage at elevated humidity” value in data set [1] (elevated humidity conditions, not specified in the sentence, listed as Form 6) is reported as “conversion to Hydrate Form 3”.
With `COc1cc(-c2cccc3cc([C@H](C)Nc4nc(N)ncc4C#N)n(-c4ccccc4)c(=O)c23)ccn1.O=C(O)/C=C\C(=O)O` [Maleic acid salt], the Solubility in data set [5] (0.1N HCl, 37° C., at saturation) is 34 mg/mL; in data set [5] (Simulated Gastric Fluid), greater than 19 mg/mL; in data set [5] (Simulated Intestinal Fluid), 0.01 mg/mL; in data set [5] (Water (pH 4.43)) it was ~0.2 mg/mL (pH 4.43); in data set [5] (citrate buffer, pH 2.5, at 37° C.), 3.13 mg/mL at 37 °C; in data set [5] (citrate buffer, pH 2.5, at RT) it was 1.8 mg/mL at RT;. For the same compound, the Solubility in data set [5] (pH 1.6, 37° C.) is listed as greater than 4; in data set [5] (pH 1.6, RT) it was greater than 4; in data set [5] (pH 2.5, 37° C.) it was 3.07; in data set [5] (pH 2.5, RT) it was 3.57; in data set [5] (pH 2.9, 37° C.), 1.62; in data set [5] (pH 2.9, RT) it was 1.39. Further, the Solubility in data set [5] (pH 3.8, 37° C.) came out at 0.31; in data set [5] (pH 3.8, RT), 0.24.
